Assay results: patent US9205073B2, “Method for treating virus infection using derivative of aniline” (CHINA MEDICAL UNIVERSITY, priority 2014, dated 2015)

Experiments:
[1] = system: JEV T1P1; assay: Viral plaque test, JEV T1P1 replication in TE671 cells; type: cell-based, Japanese encephalitis virus; details: treated for 36 or 48 hours
Protocol: BHK-21 cells and/or TE671cells were separately cultured in a 24-well culture plate, with an initial density of 3×10^4 per well, and with 1 ml of 2% FBS-containing MEM medium per well. The cells were incubated in an incubator (37° C., 5% CO2) overnight, and the medium was removed until the cells adhered to the plate. Then, fresh 2% FBS-containing MEM medium was simultaneously added into each well of the culture plate. The cells were infected with a JEV T1P1 virus strain, wherein the amount of JEV T1P1 used to infect BHK-21 cells was a multiplicity of infection (M.O.I.)=0.1, and the amount of JEV T1P1 used to infect TE671 cells was M.O.I.=0.05. Different concentrations of compound 1 (final concentrations were 0, 2.5, 25 and 125 μM, respectively) were added into different wells. The culture plate was placed into an incubator (37° C., 5% CO2) and maintained therein. […]
BHK-21 cells were cultured in a 6-well culture plate at an initial density of 3×10^5 per well with 2 ml of 2% FBS-containing MEM medium per well. […] The cells were washed with clear water, and then the viral plaques were counted to calculate the virus titer.

[2] = MTT assay, cell survival / CC50 in BHK-21 cells; type: cell-based; details: hamster, read-out: concentration of 50% cytotoxicity (CC50)
Protocol: In this example, 3-(4,5-dimethylthiazol-2-yl)-2,5-diphenyl tetrazolium bromide (MTT) was used to determine if the survival rate of BHK-21 cells, TE671cells and RD cells would be influenced when being treated with different concentrations of compound 1 prepared in Example 1. The concentration of 50% cytotoxicity (CC50) of compound 1 in BHK-21 cells, TE671cells and RD cells was also calculated.
MTT is a water-soluble tetrazolium salt which can react in the mitochondrial respiratory chain in living cells to metabolize and reduce the tetrazolium bromide shown in the structure of MTT and to form an water-insoluble purple crystal formazan under the reaction of succinate dehydrogenase (SDH) and cytochrome c (cyt c). The amount of the produced crystal is directly proportional to the number of living cells (because the SDH will disappear from dead cells, and thus, the MTT cannot be reduced). Furthermore, a mitochondrium is an organelle in cells that is most sensitive to the environment, and thus, the MTT assay can serve as a marker for the survival rate of cells treated by the drug.
BHK-21 cells, TE671cells and RD cells were cultured in a 96-well culture plate, respectively, with an initial density of 3×10^3 per well, and with 100 μl of 2% FBS-containing MEM medium per well. […] The absorbances of the samples were measured by ELISA at a wavelength of 570/630 nm.

[3] = system: PKR, OAS, IFN-α and interferon receptor; assay: Real-time PCR of anti-virus gene expression in JEV T1P1-infected TE671 cells; type: cell-based; details: JEV T1P1-infected TE671 cells (M.O.I.=1), 8 hours, compound 125
Protocol: TE671 cells were cultured in a 6-well culture plate in accordance with the experimental conditions. The next day, TE671 cells were infected with the JEV T1P1 virus strain (M.O.I.=1), and various concentrations (the final concentration of compound 1 were about 0 or 125 respectively) of compound 1 were added into different wells simultaneously. The cells were then incubated in an incubator (37° C., 5% CO2) for 8 hours, and then collected. The cells were re-suspended with PBS and precipitated by centrifugation (2000 rpm, 5 minutes), and then extracted by Pure Link RNA Mini Kit to obtain the RNA. If the obtained RNA was desired to be stored at −20° C., then the RNA would have to reverse transcribed into cDNA using the following reverse transcription PCR (RT-PCR) steps: i) 11 μl RNA was placed into a microtube, and put into a 55° C. […]
The expression of anti-virus genes was analyzed by real-time PCR. […] Then, the amount of fluorescence of each cycle was determined by ABI Prism 7500 software. The fold difference of each gene as compared to the control group was calculated by using Ct to calculate ΔCt and ΔΔCt (i.e., ΔCt=Ct. exp−Ct. control, ΔΔCt=ΔCt. exp−ΔCt. mock). Then, 2^−ΔΔCt can thereby be calculated.

**Q.** What does the source list for `CCOC(=O)C1=C(Nc2cc(C)cc(C)c2)OCC1=O` [Compound 1, ethyl 2-(3′,5′-dimethylanilino)-4-oxo-4,5-dihydrofuran-3-carboxylate]?
**A.** replication of JEV T1P1 (virus titer) [1]: significantly decreased; CC50 at 48 h [2]: > 500 µM; relative gene expression levels of PKR, OAS, IFN-α and interferon receptor [3]: increase
